Columns and labels:
Type in all cases: cell-based, mouse
[1] = test system: hippocampal slices; assay: AβO-treated organotypic hippocampal slice cultures; conditions: iNOS inhibitors applied 1 hr prior to AβO; for AβO-induced NO production by hippocampal slices: FIG. 8C; for AβO-induced neuronal damage (PI uptake) in hippocampal slices: FIG. 8D
Description: Hippocampal slice cultures (400 μm-thick) were prepared from 7-day-old C57BL/6J mice as previously described (25) and cultured for 10 days in vitro before use. Neuronal damage in the slices was monitored by PI uptake following Bernardino et al (27). PI itself is not toxic to neurons (27). […] After 24 hrs, the slices were observed under a Nikon Eclipse E600 microscope and the red (630 nm) fluorescence emitted by PI taken up by damaged cells was photographed by a digital camera (SPOT RTke, SPOT Diagnostics, Sterling Heights, Mich.) with fixed exposure time.
For immunofluorescent staining of neurons, cultures were fixed in 4% paraformaldehyde and stained with anti-PSD95 (1:200, Cell Signaling), anti-MAP2 (1:500, Chemicon) and anti-acetylated α-tubulin (1:250, Zymed). For immunofluorescent staining of microglia, cultures or hippocampal slices were fixed in 4% paraformaldehyde and stained with anti-IBA1 (1:500, Wako Chemicals USA), anti-SRA (E-20, 1:200, Santa Cruz Biotechnology), and anti-CD11b (1:200, AbD Serotec USA, Raleigh, N.C.). The fixed cells or hippocampal slices were incubated with antibodies for overnight at 4° C. followed by secondary Alexa488 conjugated anti-mouse or Alexa568 conjugated anti-rabbit antibody (1:700, Molecular probes). Immunostained images were observed under a Nikon Eclipse E600 microscope and photographed by a digital camera (SPOT RTke, SPOT Diagnostics, Sterling Heights, Mich.).
(§1) To obtain lysates, cells or tissues were washed with ice-cold PBS and incubated with a buffer containing 50 mmol/L Tris-HCl (pH 7.4), 150 mmol/L NaCl, 2% SDS, proteinase inhibitor cocktail (Sigma), and phosphatase inhibitor cocktail (Sigma). Lysates were briefly sonncated and cleared by centrifugation at 50,000 rpm for 10 min. Equivalent amounts of protein were analyzed by Tris/HCL gel electrophoresis. Proteins were transferred to polyvinylidene difluoride membranes and probed with antibodies. Visualization was performed using enhanced chemiluminescence (ECL, Amersham Pharmacia, Piscataway, N.J.).
Conditioned medium collected from microglia cultures (1×10^5/0.75 cm^2) and hippocampal slices treated with Aβ for 24 hrs were analyzed by the Nitric Oxide Quantization Kit according to the protocol of the manufacturer (Active Motif, Carlsbad, Calif.). Data were normalized to the amount of total protein.

[2] = test system: microglia; assay: Assay for nitric oxide (nitrite) in microglia conditioned medium; conditions: for AβO-induced increase of microglia NO production: 5 μM 1400 W, 100 μM L-NIL, FIG. 8A
[3] = test system: hippocampal neurons; assay: Indirect neurotoxicity of conditioned medium from AβO-treated microglia on hippocampal neurons; conditions: microglia co-treated 24 hrs with 1400 W or L-NIL; 25% CM; FIG. 8B
Description: Hippocampal neuronal cultures were prepared from newborn wild type C57BL/6J mice according to the method of Xiang et al (26). Neurons were cultured in NB/B27 at a density of 2.5×10^5 cells/well in 12-well plates or 8×10^5 cells/well in 6-well plates for at least 14 days before they were treated with microglia CM.
Hippocampal neurons were prepared as described above and were plated onto 96-well plate at a density of 6×10^4 cells/well and cultured for 14 days. CM from microglia cultures was added onto neurons with indicated dilutions, and cultures were incubated for 24 hrs.
For immunofluorescent staining of neurons, cultures were fixed in 4% paraformaldehyde and stained with anti-PSD95 (1:200, Cell Signaling), anti-MAP2 (1:500, Chemicon) and anti-acetylated α-tubulin (1:250, Zymed). […] Immunostained images were observed under a Nikon Eclipse E600 microscope and photographed by a digital camera (SPOT RTke, SPOT Diagnostics, Sterling Heights, Mich.).
For quantification of the PSD95-immunoreactive puncta along the dendrites, photomicrographs of PSD95 immunostained cultures were randomly taken from each culture condition. The images were transformed to 8 bit gray scale and analyzed with the Image J program. The number of puncta in each photomicrograph was counted and normalized by dendritic length. The photography and analysis were conducted in an investigator-blinded manner

[4] = test system: p38MAPK; assay: p38MAPK phosphorylation in microglia (Western blot); conditions: AβO, 30 minutes
Description: Primary microglia cultures derived from newborn C57BL/6J mice were prepared from mixed glia cultures with the “shaking off” method described by Maezawa, I., et al.; (2006) FASEB J 20, 797-799. […] To obtain conditioned medium (CM) for treating neurons, microglia were first cultured in 24-well culture plates at a density of 1.3×10^5 cells/cm^2 for 24 hrs in DMEM with 10% fetal bovine serum (DMEM10). Cultures were washed extensively and changed to the Neurobasal medium with B27 supplement (NB/B27, Invitrogen) without serum and cultured for another 24 hrs. The NB/B27-based microglia CMs were collected, briefly centrifuged, and used immediately or frozen for future uses.
as §1
The following primary antibodies (dilutions) were used: anti-p38MAPK (1:1000, Cell Signaling Technology, Boston, Mass.), anti-phospho-p38MAPK (1:1000, Cell Signaling Technology), anti-Synaptophysin (1:1000, Abcam), anti-PSD95 (1:1000, cell signaling), anti-GRIP 1 (1:1000, UpState), anti-MAP2 (1:1000, Chemicon), anti-acetylated α-tubulin (1:2000, Zymed), and anti-β-actin (1:3000, Sigma). Secondary antibodies were HRP-conjugated anti-rabbit, anti-goat, or anti-mouse antibody (1:3000 Amersham).

[5] = test system: microglia; assay: AβO-induced microglia proliferation/activation (cell number); conditions: for microglia cell counts, % of solvent-treated controls: mean±S.E
[6] = test system: NFκB; assay: NFκB assay in microglia; conditions: AβO, 2 hrs
Description: The detection of cells with active NFκB was performed according to the method described by Franciosi, S., et al.; (2006) J Neurosci 26, 11652-11664. Briefly, microglia were plated as described above and treated with activators for 2 hrs. Cells were fixed and stained with anti-NF-κBp65 antibody (1:250, Chemicon) and with the nuclear dye DAPI.

[7] = test system: hippocampal neurons; assay: Viability of cultured hippocampal neurons, direct AβO; conditions: direct addition

CC(=N)NCCCC[C@H](N)C(=O)O [L-NIL, N-iminoethyl-Llysine, reference compound]
AβO-induced NO production by hippocampal slices [1]: blocked | AβO-induced neuronal damage (PI uptake) in hippocampal slices [1]: blocked | AβO-induced increase of microglia NO production [2]: prevented | AβO-induced microglial neurotoxicity (neuronal viability) [3]: blocked

AβO: synthetic Aβ42 peptide oligomers, microglia activator
increase of NO release per cell ([2]; AβO 24 hr, normalized to total cellular protein): ~80% | phosphorylated p38MAPK, % of vehicle treatment control [4]: 225±38% | AβO concentration at which microglia proliferation maximizes [5]: around 50 nM | AβO concentration at which microglia proliferation starts [5]: 5 nM | microglia cell counts, % of solvent-treated controls ([5]; 20 nM AβO, 24 hr): 184±8.59% | microglia cell counts, % of solvent-treated controls ([5]; 20 nM AβO, 48 hr): 330±21.8% | increase of cells with active NFκB immunoreactivity [6]: six-fold increase | AβO concentrations affecting viability of cultured hippocampal neurons [7]: above 100 nM

CC(=N)NCc1cccc(CN)c1 [1400 W, N-[(3-aminomethyl)benzyl]acetamidine, reference compound]
AβO-induced NO production by hippocampal slices [1]: blocked | AβO-induced neuronal damage (PI uptake) in hippocampal slices [1]: blocked | AβO-induced increase of microglia NO production [2]: prevented | AβO-induced microglial neurotoxicity (neuronal viability) [3]: blocked

Nc1c(/N=N/c2ccc(-c3ccc(/N=N/c4cc(S(=O)(=O)O)c5ccccc5c4N)cc3)cc2)cc(S(=O)(=O)O)c2ccccc12 [Congo red, reference compound]
AβO mitogenic effect on microglia (cell numbers) ([5]; 20 nM AβO, 24 hrs, A11 50 nM, CR 100 nM, FIG. 1D): blocked | microglia activation / mitogenic effect induced by human brain AβO ([5]; soluble AD hippocampus extracts): blocked

polyinosinic acid [poly I, reference compound]
AβO-induced microglia activation / proliferation ([5]; 20 nM AβO 24 hrs, 100 ng/ml poly I, 10 μg/ml E-20, 20 μM doxycycline, 1 μM TRAM-34, FIG. 3): blocked

— patent publication US20130281504A1, “Reduction of Microglia-Mediated Neurotoxicity by KCa3.1 Inhibition” (THE REGENTS OF THE UNIVERSITY OF CALIFORNIA, priority 2010, published 2013)
